The text below walks through data of US7795252B2, “Rapamycin analogues and the uses thereof in the treatment of neurological, proliferative, and inflammatory disorders” (Pfizer Inc., priority 2004, dated 2010).

Broadly, the IC50 is the concentration that inhibits the measured activity by half.

Test [1] concerns Dissociated cortical neuron cultures. As to the kind of experiment: cortical neuron assay (neurite outgrowth). The format is cell-based. To be noted: Cortical neurone, rat E15 cortical neurons, compound for 72 hours, read-out: EC50 in cortical neuron assays. Here is the method: Dissociated cortical neuron cultures were prepared as previously described (Pong et al., 2001). Briefly, embryonic day 15 rat fetuses were collected and dissected in ice-cold PBS. Dissected cortices were pooled together and transferred to an enzymatic dissociation medium containing papain. After 30 minutes, the tissue was mechanically triturated with a fire-polished glass Pasteur pipette. Single-cell suspensions in complete media were seeded on poly-L-ornithine and laminin coated 96-well plates. After 24 hours, cultures were treated with various concentrations of compound for 72 hours. The cultures were then fixed and stained with an anti-tubulin primary antibody (TUJ-1) and a fluorescent-tagged secondary antibody. Neurite outgrowth was determined by using the Enhanced Neurite Outgrowth (ENO) algorithm with the Cellomics ArrayScan and expressed as average neurite length or total neurite length per cell.

In test [2] the test system is Mesencephalic dopaminergic neuron cultures. Description: dopaminergic (3H-dopamine) uptake assay after MPP+ exposure. The format is cell-based. To be noted: Neuron, rat E15 mesencephalic dopaminergic neurons, read-out: EC50 in dopaminergic uptake assays. As for the experimental part:
Mesencephalic dopaminergic neuron cultures were prepared as described in Pong et al., J. Neurochem. 69: 986-994, 1997, which is incorporated herein by reference in its entirety. Embryonic day 15 (E15) rat fetuses were collected and dissected in ice-cold phosphate-buffered saline (PBS). The ventral piece of tissue compromising the mesencephalic dopaminergic region was dissected out. Dissected pieces of tissue were pooled together and transferred to an enzymatic dissociation medium containing 20 IU/mL papain in Earle's balanced salt solution (Worthington Biochemical, Freehold, N.J., USA) and incubated for 60 minutes at 37° C. After enzymatic dissociation, the papain solution was aspirated and the tissue mechanically triturated with a fire-polished glass Pasteur pipette in complete medium (equal volumes of minimum essential medium (MEM) and F-12 nutrient mixture (GibcoBRL) supplemented with 0.1 mg/mL apotransferrin and 2.5 μg/mL insulin) containing 2,000 IU/mL DNase and 10 mg/mL ovomucoid protease inhibitor.
For dopamine uptake experiments, single-cell suspensions in complete media were seeded on poly-L-ornithine and laminin coated 24-well plates. The cultures were maintained for seven days prior to experimentation. Cultures were pretreated with various concentrations of the compound for 24 hours, then exposed to 10 mM MPP+ for 1 hour. Following the 1 hour incubation, media was exchanged three times and fresh compound was added for an additional 48 hours.
After 48 hours growth of mesencephalic dopaminergic neuron cultures following MPP+ exposure, high-affinity 3H-dopamine uptake was performed using a modified method described by Prochiantz et al., Nature 293: 570-572, 1981, which is incorporated herein by reference. Cultures were washed with pre-warmed PBS containing 5.6 mM glucose and 1 mM ascorbic acid. Cultures were then incubated for 15 minutes at 37° C. with 50 nM 3H-dopamine (31 Ci/mmol, DuPont-NEN, Wilmington, Del., USA). The cultures were washed twice with buffer and lysed with 0.5 N NaOH. The lysate was transferred to a scintillation vial containing Ultima Gold scintillation cocktail and radioactivity was determined with a liquid scintillation counter. Alternatively, culture lysates can be washed twice with buffer, incubated for 2 hours at room temperature with Optiphase Supermix scintillation cocktail (Wallac Scintillation Products, Gaithersburg, Md., USA), and radioactivity measured with a liquid scintillation counter.

The subject of test [3] is Spinal cord neuron cultures. Description: spinal cord neuron assay. The format is cell-based. The note with it: rat E15 spinal cord neurons, compound for 72 h, read-out: EC50 in spinal cord neuron assays. As for the experimental part:
Spinal cord neuron cultures were prepared from embryonic day 15 (E15) rat embryos (Sprague-Dawley, Charles River Laboratories, Wilmington, Mass.). The embryos were collected and their spinal cords were removed in ice-cold phosphate-buffered saline (PBS) without Ca^2+ and Mg^2+. Dissected pieces of spinal cord tissue were pooled together and transferred to an enzymatic dissociation media containing 20 IU/mL papain in Earle's balanced salt solution (Worthington Biochemical, Freehold, N.J.) and incubated for 30 minutes at 37° C. After enzymatic dissociation, the papain solution was aspirated and the tissue mechanically triturated with a fire-polished Pasteur pipette in complete media [Neurobasal Medium with B-27 supplement (Gibco, Grand Island, N.Y.), 100 IU/mL penicillin, 100 μg/mL streptomycin, 3.3 μg/mL aphidicolin, 0.5 mM glutamate] containing 2,000 IU/mL DNase and 10-mg/mL ovomucoid protease inhibitor. Single-cell suspensions in complete media were plated on pre-coated poly-L-ornithine/laminin 96-well plates (Becton-Dickinson, Bedford, Mass.) at a density of 1.0×10^4 cells/well. Spinal cord neurons were maintained for 24 h then exposed to vehicle or various concentrations of compound for 72 h.

Test [4] deals with human CD4+ T cells. Description: Anti-CD3/-CD28 stimulation and IL-2 re-stimulation assay. The format is cell-based. As for the experimental part: (§1) In the following assays, human CD4+ T cells were purified by negative selection from peripheral blood lymphocytes using RosetteSep as per manufacture's instructions (StemCell Technologies, Inc. Vancouver, British Columbia).
Tosyl-activated magnetic microspheres (Dynal, Great Neck, N.Y.) were coated with anti-CD3 Ab (1 μg/10^7 microspheres), and anti-CD28Ab (0.5 μg/10^7 microspheres) as described in Blair et al. J. Immunol., 160:12, 1998. Murine IgG was used to saturate the binding capacity of the microspheres (total protein=5 μg/10^7 microspheres). Protein-coated microspheres were added to purified CD4+ T cells (2×10^6 cells/mL, ratio 1 bead: 1 cell) and activated for 72 hours in RPMI, 10% fetal calf serum, 2 mM glutamine media. Cells were harvested, washed, and cultured overnight in fresh media and re-stimulated with IL-2 as described in Bennett et al., J. Immunol. 170:711, 2003. Briefly, overnight rested cells were recounted, plated (10^5 cells/well) in flat-bottomed 96 well microtiter plates and stimulated with 1 ng/mL human IL-2 (R&D Systems, Minneapolis, Minn.) in the presence of increasing concentrations of compound. Seventy-two hours after culture re-stimulation, plates were pulsed with 1 μCi/well tritiated thymidine and incubated for a 6-16 hour period.

In test [5] the test system is human CD4+ T cells. As to the kind of experiment: PMA/ionomycin activation assay. The format is cell-based. To be noted: CD4+ T cells stimulated with PMA and ionomycin, tritiated thymidine incorporation, read-out: EC50, inhibition of proliferation. Here is the method: as §1
Proliferation of the compounds was determined using this assay. CD4+ T cells (5×10^5 cells/well) were plated in flat bottomed 96 well microtiter plates in RPMI, 10% fetal calf serum, 2 mM glutamine media and stimulated with PMA (10 ng/mL) and ionomycin (200 ng/mL) in the presence of increasing concentration of compound. Seventy-two hours after activation, 100 μL of culture media was collected for IL-2 determination, an additional 100 μL fresh media was added to each well and cultures labeled with tritiated thymidine (1 μCi/well) for 6 hours. Cultures were harvested and tritiated thymidine incorporation (count per minute, CPM) assessed using a Trilux (Perkin Elmer, Shelton, Conn.). IL-2 production was determined using an ELISA as per manufacture's instructions (R&D Systems, Minneapolis, Minn.).
On the technique in general: Uptake of a labelled nucleoside into DNA is a usual measure of proliferation.

The subject of test [6] is breast tumor cell line MDA468 (PTEN-mutated). As to the kind of experiment: cell-based proliferation assay (MTS), MDA468. As for the experimental part: (§2) In this assay, a cell-based proliferation assay was performed to evaluate the compounds of the invention in inhibiting growth of cells including the breast tumor cell line MDA468 (PTEN-mutated) ATCC No. HTB-132 or prostate tumor cell line LNCap (PTEN-mutated) ATCC CRL-1740. • (i) On day one, cells were plated in 96-well culture plates. • (ii) On day two, compounds were added to cells at a predetermined concentration. • (iii) On day five, cell proliferation was measured by standard MTS assay protocol as described in S A O'Toole et al., Cancer Detection and Prevention, 27(1), 2003. Results were recorded by A490 absorbance using a 96-well format platereader. • (iv) The MTS results (A490 units) from compound-treated wells were then calculated as % control growth relative to the control (untreated) wells on the same culture plate.

Test [7] deals with prostate tumor cell line LNCap (PTEN-mutated). Description: cell-based proliferation assay (MTS), LNCap. The note with it: Homo sapiens. Here is the method: as §2

`CO[C@H]1C[C@@H]2CC[C@@H](C)[C@@](O)(O2)C(=O)C(=O)N2CCCC[C@H]2C(=O)O[C@H]([C@H](C)C[C@@H]2CC[C@@H](O)[C@H](OC)C2)CC(=O)[C@H](C)/C=C(\C)[C@@H](O)[C@@H](OC)C(=O)[C@H](C)C[C@H](C)[C@@H]2C=C[C@H](/C=C/1C)ON2c1ccccc1` [Example 1, 9,27-dihydroxy-3-{2-[4-hydroxy-3-methoxycyclohexyl]-1-methylethyl}-10,21-dimethoxy-6,8,12,14,20,26-hexamethyl-37-phenyl-4,9,10,12,13,14,15,18,21,22,23,24,25,26,27,32,33,34,34a-nonadecahydro-3H-23,27-epoxy-18,15-(epoxyimino)pyrido[2,1-c][1,4]oxazacyclohentriacontine-1,5,11,28,29(6H,31H)-pentone]: the EC50 in test [1] was less than 1000 nM; in test [2] it was less than 1000 nM; in test [3] it was less than 1000 nM; in test [5], 200 to 4900 nM. Also, the IC50 in test [4] (CD4+ T cells activated with anti-CD3/anti-CD28, re-stimulated with 1 ng/mL human IL-2, read-out: IC50, inhibition of IL-2 production) is less than 1000 nM; in test [6], less than 10 nM; in test [7], less than 10 nM. Besides, the “IL-2 production compared with rapamycin and CCI-779” value in test [4] (CD4+ T cells, IL-2 re-stimulation) is reported as “commensurate”.
